The text below walks through data of US8362000B2, “Azetidinyl diamides as monoacylglycerol lipase inhibitors” (Janssen Pharmaceutica NV, priority 2009, dated 2013).

Substitutions are numbered along the chain they refer to. Read-outs that look alike come from different tables or passages of the source.

One test has as its target T1, mutant MGL (Homo sapiens, UniProt Q99685, L169S/L176S).
T1 sequence (Q99685 1-303 L169S/L176S): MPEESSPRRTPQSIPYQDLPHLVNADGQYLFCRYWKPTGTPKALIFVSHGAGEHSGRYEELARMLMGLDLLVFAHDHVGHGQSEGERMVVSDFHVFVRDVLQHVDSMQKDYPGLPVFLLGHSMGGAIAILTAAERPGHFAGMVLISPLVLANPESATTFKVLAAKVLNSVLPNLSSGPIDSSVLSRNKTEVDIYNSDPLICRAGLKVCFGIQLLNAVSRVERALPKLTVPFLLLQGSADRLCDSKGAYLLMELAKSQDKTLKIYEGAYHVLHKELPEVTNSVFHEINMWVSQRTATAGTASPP
Put plainly: MGL ThermoFluor assay - mutant. Format: binding. (DSF heats the sample and reads unfolding from a dye or from intrinsic fluorescence.)

The target of test [1] is T2, purified wild type MGL (wt-MGLL 6H-11-313) (Homo sapiens, UniProt Q99685).
T2 sequence (Q99685 1-303): T1 sequence (Q99685 1-303 L169S/L176S) with S169L, S176L

Where [2] appears, read: ThermoFluor thermal stability binding assay, read-out: MGL mutant ThermoFluor Kd.
[3] abbreviates: ThermoFluor, compound concentration measured by qNMR, read-out: MGL mutant ThermoFluor qKd (μM) (using qNMR conc.).
The mark [4] stands for this setting: ThermoFluor concentration-response, read-out: MGL mutant ThermoFluor Kd.
[5] abbreviates: compound concentration measured by qNMR, read-out: MGL mutant ThermoFluor qKd (using qNMR conc.).
Setting [6] is: ThermoFluor, compound concentration measured by qNMR, read-out: MGL mutant ThermoFluor qKd (using qNMR conc.).

As a reminder, the IC50 is the midpoint of a concentration-inhibition curve. A lower IC50 goes with greater potency in that assay. Take `Cc1c(C(=O)N2CC(N3CCN(C(=O)c4nccs4)CC3)C2)sc2ccc(C(F)(F)F)cc12` [Cpd 897]: on mutant MGL (setting [2]), the Kd was determined as 0.002 µM. The molecule also showed an IC50 in test [1] of under 5 nM.

As for `O=C(c1nccs1)N1CCN(C2CN(C(=O)c3sc4cc(C(F)(F)F)ccc4c3Cl)C2)C(C(F)(F)F)C1` (stereo not drawn) [Cpd 778, 1-(1-{[3-Chloro-6-(trifluoromethyl)-1-benzothiophen-2-yl]carbonyl}azetidin-3-yl)-4-(1,3-thiazol-2-ylcarbonyl)-2-(trifluoromethyl)piperazine], the Kd on mutant MGL (setting [3]) was determined as 1.2 µM. For the same molecule, inhibition in test [1] was half-maximal at 933 nM (IC50).

As for `CC(C)=Cc1c(C(=O)N2CC(N3CCN(C(=O)c4ccccc4)CC3)C2)sc2cc(C(F)(F)F)ccc12` [Cpd 511], at mutant MGL (setting [2]), the Kd was 0.002 µM. Besides, in test [1], the IC50 came to 240 nM.

Turning to `O=C(c1ccc2nc(C(F)(F)F)cc(Cl)c2c1)N1CC(N2CCN(C(=O)c3cscn3)CC2)C1` [Cpd 848], at mutant MGL (setting [4]), the Kd turned out to be 0.833 µM. Further, in test [1], the IC50 amounted to 6900 nM.

Turning to `O=C(c1ccc(-c2ccccc2)cc1)N1CCN(C2CN(C(=O)c3csnn3)C2)CC1` [Cpd 1276, 1-(Biphenyl-4-ylcarbonyl)-4-[1-(1,2,3-thiadiazol-4-ylcarbonyl)azetidin-3-yl]piperazine], the Kd on mutant MGL (setting [4]) was 0.807 µM. In addition, the IC50 in test [1] was 1760 nM.

For `O=C(c1ccc(-c2ccc(C(F)(F)F)s2)cc1)N1CC(N2CCN(C(=O)c3cncs3)CC2)C1` [Cpd 1268], the Kd on mutant MGL (setting [5]) was found to be 0.039 µM. This molecule had a half-inhibitory concentration (IC50) in test [1] of 1220 nM.

For the molecule `O=C(c1ccc2c(c1)CCN(C(=O)C1CCC(F)(F)CC1)C2)N1CC(N2CCN(C(=O)c3nccs3)CC2)C1` [Cpd 729], at mutant MGL (setting [2]), the Kd stood at 0.185 µM. Besides, the IC50 in test [1] was found to be 236 nM.

In the case of `O=C(c1cccc(NCc2ccccc2)c1)N1CC(N2CCN(C(=O)c3nccs3)CC2)C1` [Cpd 713], at mutant MGL (setting [2]), the Kd worked out at 0.1 µM. The molecule also had a 50% inhibitory concentration (IC50) in test [1] of 135 nM.

As to `O=C(c1ccc(-n2ccc(C(F)(F)F)n2)cc1)N1CC(N2CCN(C(=O)c3cscn3)CC2)C1` [Cpd 1302], the Kd on mutant MGL (setting [2]) came out at 2.5 µM. For the same molecule, half-maximal inhibition in test [1] (IC50) required 4950 nM.

For the molecule `COc1ccc(C(C)(C)C)cc1C(=O)N1CC(N2CCN(C(=O)c3nccs3)CC2)C1` [Cpd 849], the Kd on mutant MGL (setting [4]) came to 2.7 µM. This molecule also registered a 50% inhibitory concentration (IC50) in test [1] of 7010 nM.

Take `O=C(c1ccc2c(ccn2-c2ccc(Cl)cn2)c1)N1CC(N2CCN(C(=O)c3cscn3)CC2)C1` [Cpd 1180, 1-(5-Chloropyridin-2-yl)-5-({3-[4-(1,3-thiazol-4-ylcarbonyl)piperazin-1-yl]azetidin-1-yl}carbonyl)-1H-indole]: at mutant MGL (setting [6]), the Kd came out at 0.019 µM. This molecule yielded a concentration for half-maximal inhibition (IC50) in test [1] of 75 nM.

Regarding `O=C(c1ccc(-c2cccc(C(F)(F)F)c2)cc1)N1CC(N2CCN(C(=O)c3ccon3)CC2)C1` [Cpd 1145], the Kd on mutant MGL (setting [3]) is 0.061 µM. In test [1], this molecule yielded an IC50 of 31 nM.

Turning to `Cc1c(C(=O)N2CC(N3CCN(C(=O)c4ccc[nH]4)CC3)C2)n(C)c2ccc(Cl)cc12` [Cpd 733], at mutant MGL (setting [6]), the Kd came to 0.453 µM. In addition, in test [1], the IC50 worked out at 240 nM.

Take `O=C(c1ccc[nH]1)N1CC(N2CCN(C(=O)c3cc4cc(C(F)(F)F)ccc4s3)CC2)C1` [Cpd 722, 1-[1-(1H-Pyrrol-2-ylcarbonyl)azetidin-3-yl]-4-{[5-(trifluoromethyl)-1-benzothiophen-2-yl]carbonyl}piperazine]: the Kd at mutant MGL (setting [4]) is 0.082 µM. In addition, the half-inhibitory concentration (IC50) in test [1] was found to be 180 nM.

As for `O=C(c1ccc(Oc2cccc(F)n2)cc1)N1CC(N2CCN(C(=O)c3cscn3)CC2)C1` [Cpd 784], the Kd on mutant MGL (setting [4]) was determined as 2.15 µM. In test [1], this molecule came in with an IC50 of 1130 nM.

For `N#Cc1ccc(Cn2ncc3cc(C(=O)N4CC(N5CCN(C(=O)c6nccs6)CC5)C4)ccc32)cc1` [Cpd 1045, 4-{[5-({3-[4-(1,3-Thiazol-2-ylcarbonyl)piperazin-1-yl]azetidin-1-yl]carbonyl)-1H-indazol-1-yl}methyl}benzonitrile], the Kd on mutant MGL (setting [5]) turned out to be 0.19 µM. This molecule also came in with a 50% inhibitory concentration (IC50) in test [1] of 21 nM.

`O=C(c1ccc(OCc2ccc3ccccc3n2)cc1)N1CC(N2CCN(C(=O)c3nccs3)CC2)C1` [Cpd 967]: the Kd at mutant MGL (setting [2]) stood at 0.044 µM. Also, the IC50 in test [1] amounted to 9 nM.

Turning to `O=C(c1ccc2nn(Cc3ccc(C(F)(F)F)cc3)cc2c1)N1CC(N2CCN(C(=O)c3nccs3)CC2)C1` [Cpd 1037, 5-({3-[4-(1,3-Thiazol-2-ylcarbonyl)piperazin-1-yl]azetidin-1-yl}carbonyl)-2-[4-(trifluoromethyl)benzyl]-2H-indazole], on mutant MGL (setting [5]), the Kd amounted to 0.022 µM. The molecule further showed an IC50 in test [1] of 5 nM.

Consider `CC(c1ccccc1)n1ncc2cc(C(=O)N3CC(N4CCN(C(=O)c5nccs5)CC4)C3)ccc21` (stereo not drawn) [Cpd 1411, 1-(1-Phenylethyl)-5-({3-[4-(1,3-thiazol-2-ylcarbonyl)piperazin-1-yl]azetidin-1-yl}carbonyl)-1H-indazole], for which the Kd on mutant MGL (setting [5]) was found to be 0.001 µM. The molecule further came in with an IC50 in test [1] of 12 nM.

In the case of `O=C(c1cccnc1)c1c[nH]c2cc(C(=O)N3CC(N4CCN(C(=O)c5nccs5)CC4)C3)ccc12` [Cpd 950], on mutant MGL (setting [5]), the Kd was 0.883 µM. In addition, in test [1], the concentration for half-maximal inhibition (IC50) was 1500 nM.

Consider `O=C(c1nccs1)N1CCN(C2CN(C(=O)c3cccc4oc(-c5cccc(Cl)c5)nc34)C2)CC1` [Cpd 1191], for which the Kd on mutant MGL (setting [2]) amounted to 0.011 µM. This molecule yielded a half-inhibitory concentration (IC50) in test [1] of 105 nM.

Take `O=C(c1nccs1)N1CCN(C2CN(C(=O)c3cn(-c4ccc(F)cc4)c4ccccc34)C2)CC1` [Cpd 1224]: the Kd on mutant MGL (setting [3]) stood at 0.189 µM. This molecule also yielded an IC50 in test [1] of 270 nM.

As to `O=C(c1ccc2c(cnn2Cc2ccc(F)cc2)c1)N1CC(N2CCN(C(=O)c3nccs3)CC2)C1` [Cpd 1029, 1-(4-Fluorobenzyl)-5-({3-[4-(1,3-thiazol-2-ylcarbonyl)piperazin-1-yl]azetidin-1-yl}carbonyl)-1H-indazole], on mutant MGL (setting [5]), the Kd was 0.006 µM. Besides, the IC50 in test [1] was under 5 nM.

For the molecule `Cc1cc(C(=O)N2CC(N3CCN(C(=O)c4nccs4)CC3)C2)ccc1Br` [Cpd 727], the Kd at mutant MGL (setting [6]) stood at 0.251 µM. This molecule had an IC50 in test [1] of 219 nM.

On to `O=C(c1ccccc1)N1CCN(C2CN(C(=O)c3ccc4c(-c5ccc(C(F)(F)F)cc5)ncnc4c3)C2)CC1` [Cpd 597], for which the Kd on mutant MGL (setting [4]) was found to be 0.153 µM. The molecule also gave a concentration for half-maximal inhibition (IC50) in test [1] of 600 nM.

Consider `O=C(c1ccc2nn(Cc3ccc(F)cc3)cc2c1)N1CC(N2CCN(C(=O)c3nccs3)CC2)C1` [Cpd 1030, 2-(4-Fluorobenzyl)-5-({3-[4-(1,3-thiazol-2-ylcarbonyl)piperazin-1-yl]azetidin-1-yl}carbonyl)-2H-indazole], for which the Kd at mutant MGL (setting [5]) came out at 0.033 µM. This molecule came in with a half-inhibitory concentration (IC50) in test [1] of 13 nM.

For `CN(c1ccccc1)S(=O)(=O)c1ccc(C(=O)N2CC(N3CCN(C(=O)c4nccs4)CC3)C2)cc1` [Cpd 946], at mutant MGL (setting [6]), the Kd was 1.69 µM. This molecule came in with an IC50 in test [1] of 1000 nM.

Turning to `O=C(c1cscn1)N1CC(N2CCN(C(=O)c3cc4cc(Cl)ccc4o3)CC2)C1` [Cpd 809], the Kd on mutant MGL (setting [4]) is 0.769 µM. The IC50 in test [1] amounted to 2100 nM.

On to `O=C(c1ccc2c(ccn2-c2ccc(F)cc2)c1)N1CC(N2CCN(C(=O)c3ccc(F)s3)CC2)C1` [Cpd 1427], for which, on mutant MGL (setting [3]), the Kd is 0.01 µM. The same molecule returned a half-inhibitory concentration (IC50) in test [1] of 6 nM.

In the case of `Cn1cc(Cc2ccc(F)cc2)c2ccc(C(=O)N3CC(N4CCN(C(=O)c5nccs5)CC4)C3)cc21` [Cpd 1026], on mutant MGL (setting [5]), the Kd was determined as 0.001 µM. The molecule also returned a half-maximal inhibitory concentration (IC50) in test [1] of 16 nM.

As for `O=C(c1ccc[nH]1)N1CCN(C2CN(C(=O)c3[nH]c4nc(C(F)(F)F)ccc4c3Br)C2)CC1` [Cpd 739], the Kd on mutant MGL (setting [6]) was found to be 0.265 µM. The molecule further came in with an IC50 in test [1] of 290 nM.

On to `Cc1nc(-c2ccccc2F)sc1C(=O)N1CC(N2CCN(C(=O)c3cscn3)CC2)C1` [Cpd 1287], for which the Kd at mutant MGL (setting [4]) was found to be 0.495 µM. This molecule also showed a 50% inhibitory concentration (IC50) in test [1] of 2450 nM.

As for `O=C(c1ccc(Oc2cccc(F)n2)cc1)N1CC(N2CCN(C(=O)c3nccs3)CC2)C1` [Cpd 715], the Kd at mutant MGL (setting [4]) amounted to 0.167 µM. The molecule further showed an IC50 in test [1] of 135 nM.

For the molecule `O=C(c1cnc2cc(Cl)ccc2c1)N1CC(N2CCN(C(=O)c3nccs3)CC2)C1` [Cpd 787], the Kd at mutant MGL (setting [6]) is 0.247 µM. Besides, 1210 nM corresponded to half-maximal inhibition in test [1] (IC50).

Consider `O=C(c1ccc2[nH]c3c(c2c1)CCCC3)N1CC(N2CCN(C(=O)c3nccs3)CC2)C1` [Cpd 763], for which the Kd on mutant MGL (setting [4]) came to 0.083 µM. In test [1], this molecule gave a 50% inhibitory concentration (IC50) of 635 nM.

`O=C(c1ccc(-c2ccccc2)cc1)N1CC(N2CCN(C(=O)c3cocn3)CC2)C1` [Cpd 1222]: on mutant MGL (setting [2]), the Kd was found to be 0.068 µM. In addition, the midpoint of inhibition in test [1], the IC50, lay at 266 nM.

With `O=C(c1cc2ccc(C(F)(F)F)nc2o1)N1CC(N2CCN(C(=O)c3nccs3)CC2)C1` [Cpd 844], on mutant MGL (setting [4]), the Kd turned out to be 62.5 µM. For the same molecule, the IC50 in test [1] turned out to be 6100 nM.

For the molecule `O=C(c1cccc(CNc2ccccc2F)c1)N1CC(N2CCN(C(=O)c3nccs3)CC2)C1` [Cpd 1005], on mutant MGL (setting [4]), the Kd was 0.083 µM. The half-maximal inhibitory concentration (IC50) in test [1] amounted to 237 nM.

As to `O=C(c1cscn1)N1CC(N2CCN(C(=O)c3ccc(-c4ccccc4)cc3)C(Cc3ccccc3)C2)C1` (stereo not drawn) [Cpd 1284, 2-Benzyl-1-(biphenyl-4-ylcarbonyl)-4-[1-(1,3-thiazol-4-ylcarbonyl)azetidin-3-yl]piperazine], the Kd on mutant MGL (setting [4]) worked out at 0.041 µM. In test [1], this molecule gave an IC50 of 2290 nM.
